Experiment [1] deals with VCaP cells. The experiment can be described thus: Cell proliferation assay (CellTiter-Glo, 5-day exposure), VCaP. Type of experiment: cell-based. The conditions noted are these: 4000 cells/well, Th-227 labelled at 375 kBq/nmol, mean of 1 to 6 experiments. The essentials:
(§1)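 CellTiter-Glo luminescence, day 0 (sister plates) vs day 5 of exposure to Th-227-labelled PSMA ligands. Seeding: VCaP 4000 cells/well; 22Rv1, C4-2, LNCaP 1000 cells/well; overnight 37 °C, 5% CO2 before treatment.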
In general terms: In ATP-based viability assays light output follows the ATP content of the culture.

For experiment [2], the system named is C4-2 cells. Put plainly: Cell proliferation assay (CellTiter-Glo, 5-day exposure), C4-2. Type of experiment: cell-based. Particulars: C4-2, 1000 cells/well, Th-227 labelled at 375 kBq/nmol, mean of 1 to 6 experiments. The essentials: as §1
The test system of experiment [3] is 22Rv1 cells. Put plainly: Cell proliferation assay (CellTiter-Glo, 5-day exposure), 22Rv1. Type of experiment: cell-based. Particulars: 22Rv1, 1000 cells/well, Th-227 labelled at 375 kBq/nmol, mean of 1 to 6 experiments. The essentials:
as §1

Experiment [4] concerns LNCaP cells. Put plainly: Cell proliferation assay (CellTiter-Glo, 5-day exposure), LNCaP. The experiment is classed as cell-based, human. Particulars: LNCaP, 1000 cells/well; Th-227 labelled at 375 kBq/nmol; 5-day exposure; mean of 1 to 6 experiments. The protocol: Inhibition of cell proliferation of Thorium-227 labeled PMSA SMOL ligands was tested different prostate cancer cell lines, namely 22Rv1, VCaP, C4-2 (all from ATCC, Manassas, Va., USA) and LNCaP (DMSZ, Braunschweig). Cells were seeded using the following conditions in 384 well plates (Corning) in 30 μl of growth media at 4000 cells/well for VCaP cells and 1000 cells/well for 22Rv1, C4-2 and LNCaP cells.
Cells were cultivated an incubator at 37° C. and 5% C02 over night. On the following days cells were treated in triplicates with serial dilutions of PSMA-SMOLs labeled with Th-227 at a specific activity of 375 kBq/nmol (RCP>70% as assessed by iTLC analysis; compounds where RCP was between 50-70% in individual experiments are marked with an * in the table) using a D300e Digital Dispenser (Tecan). In sister plates cell viability at treatment start (d=0) was determined using CellTiter-Glo® assay (CTG, Promega, Madison, Wis., USA), by adding 30 μl per well CTG solution, incubation for 10 min and reading of Luminescence in a PheraStarFSX instrument (BMG Labtech). After a 5-day exposure in the presenced of test compounds, cell viability of treated or untreated control cells was determined again using CellTiter-Glo® assay (Promega, Madison, Wis., USA). […] The DRC software is a Biobook Spreadsheet that was developed by Bayer AG and Bayer Business Services on the IDBS E-Workbook Suite platform (IDBS: ID Business Solutions Ltd., Guildford, UK).

Experiment [5] has as its system LNCaP human prostate cancer cells. Put plainly: LNCaP xenograft efficacy study (T/C tumor area). The experiment is classed as in vivo, SCID mice. The procedure, abridged:
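SCID mice with testosterone pellet bearing s.c. flank LNCaP xenografts (5×10^6 cells in Matrigel) were treated i.v. with a defined radioactive dose once tumors reached 35-50 mm^2 (n=10/group). Tumor area (caliper, longest diameter × perpendicular) measured 2-3× weekly; T/C ratio calculated from tumor areas when vehicle group closed.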

Experiment [6] deals with T1, PSMA-expressing LNCaP cells (Homo sapiens, UniProt Q04609).
T1 construct: PSMA-expressing LNCaP cells; endogenous in cells; host or cells: LNCaP
The experiment can be described thus: Internalization assay (membrane bound and internalized Th-227). Type of experiment: cell-based. Particulars: 10 nM radiolabeled compound, Th-227 at 375 kBq/nmol, triplicates; for Internalized in LNCaP fmol/10^6 cells 30 min / Membrane bound in LNCaP fmol/10^6 cells 30 min: 30 min incubation; for Internalized in LNCaP fmol/10^6 cells 2 h / Membrane bound in LNCaP fmol/10^6 cells 2 h: 2 h incubation. The protocol:
For internalization assays 24 well plates (#3526, Corning) were coated with 200 μl Poly-L-Lysine (0.1 mg/ml, #3438-100-01, Fa. Cultrex) per well for 2 h at 37° C. […] Cells were incubated at 37° C. and 5% CO2 over night. On the following day 400 μl of the media were removed and a total of 200 μl growth medium added supplemented with PSMA-SMOLs labeled with Th-227 at 375 kBq/nmol in triplicates. Radiochemical purity of the labeling was analyzed by instant thin layer chromatography and found to be above 70% for all compounds used. The final concentration of radiolabeled SMOLs was in the test wells was 10 nM. Cells were incubated for 30 min or 2 h. After the incubation time supernatants were taken off and cells washed with PBS. Thereafter cells were washed twice with 0.2 ml 50 mM Glycine-HCl buffer (#55097, Sigma Aldrich) and once with PBS and the washing solutions combined in counting vials (#TK75-018, Fa. Corning) and subjected to gamma counting (1470 Wizard automatic gamma counter, Wallac). The resulting counts were attributed to membrane bound radioactivity. Cells were then lysed with 500 μl 0.3N NaOH (#181691.1211, Fa. PanReac AppliChem ITW Reagents) followed by another wash with 500 μl PBS. The NaOH lysate as well as the final wash were combined in vials and subjected to gamma counting as described above. Measured radioactivity was attributed to internalized fraction. Results were calculated as fmol of Th-227 per/10^cells in the membrane bound and internalized fractions from triplicate values.

The mark [7] stands for this setting: Example V, day 27 after start of therapy, once 750 kBq/kg.
[8] abbreviates: Example IV, day 36 after start of therapy, once 1 MBq/kg.

T1 sequence (Q04609 whole entry): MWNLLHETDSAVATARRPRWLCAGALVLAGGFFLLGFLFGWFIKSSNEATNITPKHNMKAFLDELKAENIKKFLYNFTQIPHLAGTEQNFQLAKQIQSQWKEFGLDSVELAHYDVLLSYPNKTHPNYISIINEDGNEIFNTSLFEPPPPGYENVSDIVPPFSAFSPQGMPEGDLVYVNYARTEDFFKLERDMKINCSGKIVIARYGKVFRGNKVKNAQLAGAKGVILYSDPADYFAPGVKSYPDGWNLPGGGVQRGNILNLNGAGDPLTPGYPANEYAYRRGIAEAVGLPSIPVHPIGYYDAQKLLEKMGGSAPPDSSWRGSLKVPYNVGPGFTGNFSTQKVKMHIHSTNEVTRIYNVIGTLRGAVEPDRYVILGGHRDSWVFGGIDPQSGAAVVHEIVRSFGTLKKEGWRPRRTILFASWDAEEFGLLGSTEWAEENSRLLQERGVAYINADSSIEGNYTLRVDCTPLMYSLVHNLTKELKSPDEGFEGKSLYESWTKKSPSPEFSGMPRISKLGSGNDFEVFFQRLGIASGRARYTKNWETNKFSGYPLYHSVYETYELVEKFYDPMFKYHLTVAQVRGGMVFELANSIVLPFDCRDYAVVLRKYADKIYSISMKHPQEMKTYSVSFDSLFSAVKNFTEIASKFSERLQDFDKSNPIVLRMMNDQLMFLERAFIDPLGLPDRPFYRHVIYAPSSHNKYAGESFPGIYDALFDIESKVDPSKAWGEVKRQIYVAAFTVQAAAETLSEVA

With `CC1=CC2=C3[O][227Th-4]45678([O]C9=C(C=C(C)N(CC(=O)O)C9=[O+]4)C(=O)NCCN(CCCN(CCNC(=O)C4=C([O]5)C(=[O+]6)N(CC(=O)O)C(C)=C4)CCNC(=O)C4=C([O]7)C(=[O+]8)N(CC(=O)NC[C@H]5CC[C@H](C(=O)N[C@@H](Cc6ccc7ccccc7n6)C(=O)NCCCC[C@H](NC(=O)N[C@@H](CCC(=O)O)C(=O)O)C(=O)O)CC5)C(C)=C4)CCNC2=O)[O+]=C3N1CC(=O)O` [Example 17-C monomer-227Th], the “Proliferation assay on cancer cell lines by TTCs Default Pivot #3 IC50 [kBq/mL] VCap 4000cells 375kBq/nmol (mean)” value in experiment [1] was found to be 1.48 kBq/mL. Further, the “Proliferation assay on cancer cell lines by TTCs Default Pivot #3 IC50 [kBq/mL] C4-2 1000cells 375kBq/nmol (mean)” value in experiment [2] came out at 0.5 kBq/mL. Besides, the “Proliferation assay on cancer cell lines by TTCs Default Pivot #3 IC50 [kBq/mL] 22Rv1 1000cells 375kBq/nmol (mean)” value in experiment [3] was found to be 0.86 kBq/mL. For the same compound, in experiment [4], the “Proliferation assay on cancer cell lines by TTCs Default Pivot #3 IC50 [kBq/mL] LnCap 1000cells 375kBq/nmol (mean)” value came to 0.04 kBq/mL. The compound also came in with a T/Carea in experiment [5] (setting [7]) of 0.36.

Turning to `Cc1cc2c(c(=O)n1CC(=O)O)[O][227Th]13[O]c4c(cc(C)n(CC(=O)O)c4=O)C(=O)NCCN(CCCN(CCNC(=O)c4cc(C)n(CC(=O)O)c(=O)c4[O]1)CCNC(=O)c1cc(C)n(CC(=O)NCc4ccc(C(=O)N[C@@H](Cc5ccc6ccccc6n5)C(=O)NCCCC[C@H](NC(=O)N[C@@H](CCC(=O)O)C(=O)O)C(=O)O)nc4)c(=O)c1[O]3)CCNC2=O` [34-C monomer-227Th], in experiment [1], the “Proliferation assay on cancer cell lines by TTCs Default Pivot #3 IC50 [kBq/mL] VCap 4000cells 375kBq/nmol (mean)” value is 0.99 kBq/mL. Moreover, the “Proliferation assay on cancer cell lines by TTCs Default Pivot #3 IC50 [kBq/mL] C4-2 1000cells 375kBq/nmol (mean)” value in experiment [2] is recorded as 0.15 kBq/mL. In addition, the “Proliferation assay on cancer cell lines by TTCs Default Pivot #3 IC50 [kBq/mL] 22Rv1 1000cells 375kBq/nmol (mean)” value in experiment [3] was found to be 1.28 kBq/mL. The “Proliferation assay on cancer cell lines by TTCs Default Pivot #3 IC50 [kBq/mL] LnCap 1000cells 375kBq/nmol (mean)” value in experiment [4] came to 0.02 kBq/mL. Besides, in experiment [6], the “Internalized in LNCaP fmol/10^6 cells 30 min” value turned out to be 75 fmol/10^6 cells, the “Membrane bound in LNCaP fmol/10^6 cells 30 min” value was 147 fmol/10^6 cells, the “Internalized in LNCaP fmol/10^6 cells 2 h” value is listed as 325 fmol/10^6 cells and the “Membrane bound in LNCaP fmol/10^6 cells 2 h” value is on record as 359 fmol/10^6 cells. Moreover, in experiment [5] (Example I, day 27, 1 x 750 kBq/kg), the T/Carea came to 0.37. The same compound yielded a T/Carea in experiment [5] (setting [8]) of 0.51. In addition, the T/Carea in experiment [5] (setting [7]) was found to be 0.37.

For `Cc1cc(C(=O)NCCN(CCCN(CCNC(=O)c2cc(C)n(CC(=O)NCc3ccc(C(=O)N[C@@H](Cc4ccc5ccccc5n4)C(=O)NCCCC[C@H](NC(=O)N[C@@H](CCC(=O)O)C(=O)O)C(=O)O)nc3)c(=O)c2[O-])CCNC(=O)c2cc(C)n(CC(=O)NCc3ccc(C(=O)N[C@@H](Cc4ccc5ccccc5n4)C(=O)NCCCC[C@H](NC(=O)N[C@@H](CCC(=O)O)C(=O)O)C(=O)O)nc3)c(=O)c2[O-])CCNC(=O)c2cc(C)n(CC(=O)NCc3ccc(C(=O)N[C@@H](Cc4ccc5ccccc5n4)C(=O)NCCCC[C@H](NC(=O)N[C@@H](CCC(=O)O)C(=O)O)C(=O)O)nc3)c(=O)c2[O-])c([O-])c(=O)n1CC(=O)O.[227Th+4]` [34-C trimer 227Th], the “Proliferation assay on cancer cell lines by TTCs Default Pivot #3 IC50 [kBq/mL] VCap 4000cells 375kBq/nmol (mean)” value in experiment [1] is given as 1.1 kBq/mL. Moreover, the “Proliferation assay on cancer cell lines by TTCs Default Pivot #3 IC50 [kBq/mL] C4-2 1000cells 375kBq/nmol (mean)” value in experiment [2] is reported as 0.28 kBq/mL. In experiment [3], the “Proliferation assay on cancer cell lines by TTCs Default Pivot #3 IC50 [kBq/mL] 22Rv1 1000cells 375kBq/nmol (mean)” value is 1.25 kBq/mL. Further, the “Proliferation assay on cancer cell lines by TTCs Default Pivot #3 IC50 [kBq/mL] LnCap 1000cells 375kBq/nmol (mean)” value in experiment [4] was determined as 0.03 kBq/mL. In addition, in experiment [6], the “Internalized in LNCaP fmol/10^6 cells 30 min” value was 68 fmol/10^6 cells, the “Membrane bound in LNCaP fmol/10^6 cells 30 min” value came to 49 fmol/10^6 cells, the “Internalized in LNCaP fmol/10^6 cells 2 h” value was determined as 162 fmol/10^6 cells and the “Membrane bound in LNCaP fmol/10^6 cells 2 h” value came to 93 fmol/10^6 cells. This compound also gave a T/Carea in experiment [5] (setting [8]) of 0.41. Besides, in experiment [5] (setting [7]), the T/Carea amounted to 0.56.
